In patent US20090149482A1, “STEREOCHEMICALLY DEFINED DIPEPTIDE ESTERS OF ANTIVIRAL AGENTS FOR ENHANCED OCULAR TREATMENT” (priority 2001, published 2009):
Where two headings read alike, the source gives them in different places. Marks after values point to notes of the source that are not given here. Blank lines part the entries; values can stand above or below the molecule they belong to. Where a SMILES comes first, the peptide text is derived from it. [ ]: non-standard residue; d: D form. Sar = CNCC(=O)O

Columns and labels:
[1] = system: HCMV; test: In vitro antiviral screening, CPE inhibition in HFF cells; format: cell-based, human cytomegalovirus; details: Human betaherpesvirus 5, HFF; HCMV, CPE Inhibition
[2] = biological target: T1, hPEPT1 (Homo sapiens, UniProt P46059); test: [3H] Glycylsarcosine uptake and its inhibition in Caco-2 cells (affinity towards peptide transporter); format: cell-based; details: for effect on the uptake of [3H] Gly-Sar: Caco-2, pH 6.0, 10 minutes; for Ki: read-out: Ki
T1 construct: endogenous in cells; host or cells: Caco-2 (human colon carcinoma, ATCC)
T1 sequence (P46059 1-708): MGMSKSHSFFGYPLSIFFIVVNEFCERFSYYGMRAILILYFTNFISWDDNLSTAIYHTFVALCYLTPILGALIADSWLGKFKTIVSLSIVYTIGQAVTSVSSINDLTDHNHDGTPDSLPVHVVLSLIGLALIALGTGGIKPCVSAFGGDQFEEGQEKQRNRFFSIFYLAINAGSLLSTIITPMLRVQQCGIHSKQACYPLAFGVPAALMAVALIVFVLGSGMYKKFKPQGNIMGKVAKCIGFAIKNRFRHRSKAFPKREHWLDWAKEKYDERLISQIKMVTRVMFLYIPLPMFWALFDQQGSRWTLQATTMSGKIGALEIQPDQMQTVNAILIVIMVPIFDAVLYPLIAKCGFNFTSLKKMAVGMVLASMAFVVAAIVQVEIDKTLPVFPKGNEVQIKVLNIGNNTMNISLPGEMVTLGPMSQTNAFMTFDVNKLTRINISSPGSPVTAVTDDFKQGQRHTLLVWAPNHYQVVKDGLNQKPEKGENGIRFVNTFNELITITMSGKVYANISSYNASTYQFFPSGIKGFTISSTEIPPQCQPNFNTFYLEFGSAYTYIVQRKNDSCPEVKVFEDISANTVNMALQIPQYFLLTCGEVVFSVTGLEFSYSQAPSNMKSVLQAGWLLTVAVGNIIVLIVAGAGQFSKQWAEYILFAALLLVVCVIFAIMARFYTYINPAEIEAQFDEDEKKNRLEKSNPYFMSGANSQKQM
Source text: Materials: [^3H] Glycylsarcosine (Gly-Sar; 4 Ci/mmol) was purchased from Moravek Biochemicals (Brea, Calif.) and [^14C] Mannitol (50 mCi/mmol) was supplied by Amersham (Piscataway, N.J.). Human colon carcinoma derived Caco-2 cells were obtained from American Type Culture Collection (ATCC, Rockville, Md.). The growth medium, Dulbecco's modified Eagle Medium was obtained from Life Technologies (Grand Island, N.Y.). […] Fetal bovine serum (FBS) was purchased from JRH Biosciences (Lenexa, Kans.). Culture flasks (75 cm^2 growth area), polyester Transwells® (pore size 0.4 Cm with diameter 6.5 mm) and polyester membranes (pore size 0.4 Cm) were procured from Costar (Bedford, Mass.). The buffer components and solvents were obtained from Fisher Scientific (St. Louis, Mo.). All the di-peptide esters of acyclovir were custom synthesized in our laboratory. […] Cell Culture: All cultures were maintained in humidified incubator at 37° C. with a 5% carbon dioxide in air atmosphere. Caco-2 cells were obtained at passage 25 from American Type Culture Collection (ATCC) and grown in plastic tissue culture flasks. […] When 80% confluent, these cells were removed by treating them with Trypsin/EDTA and plated at a density of 100,000 cells/cm^2 on collagen coated plastic dishes containing clear polyester membranes (0.636 cm^2, […]) or 12-well tissue culture treated plastic plates. Cells were then grown in medium containing 10% FBS (heat-inactivated). […] [^14C] […] Metabolism studies in Cell Suspensions: Confluent Caco-2 cells, grown in tissue culture flasks were isolated with the aid of mechanical scraper and washed thrice with DPBS. […] One-hundred micro-liters of samples were withdrawn at predetermined time intervals and the sample was purified by precipitating the cellular proteins into the organic solvent mixture and stored at −80° C. until further analysis. The protein content of the cell suspension was determined by the method of Bradford using bovine serum albumin as the standard (BioRad protein estimation kit, Hercules, Calif.). […] Transport studies: Transport experiments were done using Side-Bi-Side™ diffusion cells (type VSC-1, Crown Glass Company Inc.) and Transwell® inserts. Prior to the experiment with Gly-Sar, Caco-2 cell monolayers grown on the clear polyester membranes and Transwell® inserts were washed with DPBS (pH 6.0) and incubated at 37° C. Freshly prepared drug solutions in DPBS (pH 6.0) was placed in the donor chamber and the receiver chamber was filled with DPBS. The volumes of donor and receptor chambers were 3 ml each for Side-Bi-Side™ diffusion cells and 0.5 ml and 1.5 ml respectively for Transwell® inserts. […] The samples were stored at −80° C. until analyzed HPLC. All experiments were performed at 37° C. […] The concentration dependent uptake of glycylsarcosine was studied using [^3H] […] For Dixon plots and Dose Response studies [^3H] […] Following incubation, the cell monolayers were washed three times with ice-cold HEPES buffer to terminate the uptake experiment. After the washings cells were lysed overnight using 1 ml 0.1% (w/v) Triton X-100 in 0.3 N NaOH at room temperature. Aliquots (500 μl) from each well were then transferred to scintillation vials containing 5 ml scintillation cocktail (Fisher Scientific, Fairlawn, N.J.). […] The amount of protein in the cell lysate was measured by the BioRad protein estimation kit using bovine serum albumin as standard (BioRad Protein estimation Kit, Hercules, Calif.). Analytical Procedures: All samples were assayed using HPLC. […] The column used was a C18 Luna column 4.6×250 mm (Phenomenex). The mobile phase consisted of a mixture of buffer and an organic modifier. The percentage of organic phase was varied in order to elute compounds of interest.

[3] = system: oligopeptide transporter on the rabbit cornea
[4] = substrate: CN(CC(=O)O)C(=O)CN; test: [3H] Glycylsarcosine uptake and its inhibition in Caco-2 cells (affinity towards peptide transporter); format: cell-based, human; details: other: Gly-Sar alone, 37.0 °C

- EC50 [1]: 0.94 µM
Molecule: Nc1nc(O)c2ncn(COC(CO)CO)c2n1 [GCV, 2-amino-1,9-[[2-hydroxy-1-(hydroxymethyl)ethoxy]methyl]-6H-purin-6-one]

- effect on the uptake of [3H] Gly-Sar [2]: significantly inhibited
- Kd (rate constant of nonsaturable uptake component) ([2]; Caco-2 uptake of glycylsarcosine): 12.2 ± 0.57 µL/min/mg
- Ki ([2]; Dixon): 2350 ± 670 µM
- Ki ([2]; Dose Response (Cheng and Prusoff from IC50)): 2490 µM
- Vmax of glycylsarcosine uptake ([2]; Gly-Sar alone, Michaelis-Menten): 0.078 ± 0.005 µmol/min/mg
- IC50 ([2]; dose response curves, read-out: IC50 of inhibition of [3H] Gly-Sar uptake): 2780 ± 340 µM
Molecule: CN(CC(=O)O)C(=O)CN [Gly-Sar, glycylsarcosine, reference compound] (H-Gly-[Sar]-OH)

Molecule: Nc1ccc(C(=O)NCC(=O)O)cc1 [PAH, para-aminohippuric acid, reference compound]
- transport of Val-ACV (percent of control) ([3]; 1 mM Val-ACV in presence of 10 mM compound): 99.6±2.6% of control

Molecule: CC[N+](CC)(CC)CC [TEA, tetraethlyammonium, reference compound]
- transport of Val-ACV (percent of control) [3]: 101.3±1.1% of control

Molecule: NCC(=O)OCCOCn1cnc2c(=O)[nH]c(N)nc21 [glycine-ACV]
- effect on the uptake of [3H] Gly-Sar [2]: did not inhibit

Molecule: Nc1nc2c(ncn2COCCOC(=O)C(N)Cc2ccc(O)cc2)c(=O)[nH]1 (stereo not drawn) [tyrosine-ACV]
- effect on the uptake of [3H] Gly-Sar [2]: did not inhibit

- effect on the uptake of [3H] Gly-Sar [2]: significantly inhibited
Molecule: CC(C)[C@H](N)C(=O)N[C@H](C(=O)O)C(C)C [val-val, reference compound] (H-Val-Val-OH)

B1: hPEPT1 (Homo sapiens) (protein)
chain: MGMSKSHSFFGYPLSIFFIVVNEFCERFSYYGMRAILILYFTNFISWDDNLSTAIYHTFVALCYLTPILGALIADSWLGKFKTIVSLSIVYTIGQAVTSVSSINDLTDHNHDGTPDSLPVHVVLSLIGLALIALGTGGIKPCVSAFGGDQFEEGQEKQRNRFFSIFYLAINAGSLLSTIITPMLRVQQCGIHSKQACYPLAFGVPAALMAVALIVFVLGSGMYKKFKPQGNIMGKVAKCIGFAIKNRFRHRSKAFPKREHWLDWAKEKYDERLISQIKMVTRVMFLYIPLPMFWALFDQQGSRWTLQATTMSGKIGALEIQPDQMQTVNAILIVIMVPIFDAVLYPLIAKCGFNFTSLKKMAVGMVLASMAFVVAAIVQVEIDKTLPVFPKGNEVQIKVLNIGNNTMNISLPGEMVTLGPMSQTNAFMTFDVNKLTRINISSPGSPVTAVTDDFKQGQRHTLLVWAPNHYQVVKDGLNQKPEKGENGIRFVNTFNELITITMSGKVYANISSYNASTYQFFPSGIKGFTISSTEIPPQCQPNFNTFYLEFGSAYTYIVQRKNDSCPEVKVFEDISANTVNMALQIPQYFLLTCGEVVFSVTGLEFSYSQAPSNMKSVLQAGWLLTVAVGNIIVLIVAGAGQFSKQWAEYILFAALLLVVCVIFAIMARFYTYINPAEIEAQFDEDEKKNRLEKSNPYFMSGANSQKQM
notes: endogenous in cells; host or cells: Caco-2 (human colon carcinoma, ATCC)
- Km ([4]; Eadie-Hofstee): 1.42 ± 0.19 mM
- Vmax ([4]; Eadie-Hofstee): 0.071 µmol/min/mg
- Km ([4]; Lineweaver-Burk (control)): 2.04 ± 0.61^a mM
- Vmax ([4]; Lineweaver-Burk (control)): 0.086 µmol/min/mg
- Km ([4]; Michaelis-Menten): 1.63 ± 0.25 mM
- Vmax ([4]; Michaelis-Menten): 0.078 µmol/min/mg
